Source: patent US20080269240A1, “Novel Adenine Compound” (priority 2005, published 2008)

What follows are compounds tested against T1, human TLR7 (Homo sapiens, UniProt Q9NYK1) (assay: Human TLR7 reporter assay (NF-kB-SEAP) in HEK293 cells). Conditions: HEK293 cells stably introduced with human TLR7 plasmid and NF-kB-SEAP reporter plasmid; cultured 20 hours with compound (1 nM-10 μM); absorbance 405 nm; read-out: Human TLR7 binding activity (EC50).
T1 construct: expressed in transfected cells; host or cells: HEK293 (hTLR7/seap-293)
T1 sequence (Q9NYK1 27-1049): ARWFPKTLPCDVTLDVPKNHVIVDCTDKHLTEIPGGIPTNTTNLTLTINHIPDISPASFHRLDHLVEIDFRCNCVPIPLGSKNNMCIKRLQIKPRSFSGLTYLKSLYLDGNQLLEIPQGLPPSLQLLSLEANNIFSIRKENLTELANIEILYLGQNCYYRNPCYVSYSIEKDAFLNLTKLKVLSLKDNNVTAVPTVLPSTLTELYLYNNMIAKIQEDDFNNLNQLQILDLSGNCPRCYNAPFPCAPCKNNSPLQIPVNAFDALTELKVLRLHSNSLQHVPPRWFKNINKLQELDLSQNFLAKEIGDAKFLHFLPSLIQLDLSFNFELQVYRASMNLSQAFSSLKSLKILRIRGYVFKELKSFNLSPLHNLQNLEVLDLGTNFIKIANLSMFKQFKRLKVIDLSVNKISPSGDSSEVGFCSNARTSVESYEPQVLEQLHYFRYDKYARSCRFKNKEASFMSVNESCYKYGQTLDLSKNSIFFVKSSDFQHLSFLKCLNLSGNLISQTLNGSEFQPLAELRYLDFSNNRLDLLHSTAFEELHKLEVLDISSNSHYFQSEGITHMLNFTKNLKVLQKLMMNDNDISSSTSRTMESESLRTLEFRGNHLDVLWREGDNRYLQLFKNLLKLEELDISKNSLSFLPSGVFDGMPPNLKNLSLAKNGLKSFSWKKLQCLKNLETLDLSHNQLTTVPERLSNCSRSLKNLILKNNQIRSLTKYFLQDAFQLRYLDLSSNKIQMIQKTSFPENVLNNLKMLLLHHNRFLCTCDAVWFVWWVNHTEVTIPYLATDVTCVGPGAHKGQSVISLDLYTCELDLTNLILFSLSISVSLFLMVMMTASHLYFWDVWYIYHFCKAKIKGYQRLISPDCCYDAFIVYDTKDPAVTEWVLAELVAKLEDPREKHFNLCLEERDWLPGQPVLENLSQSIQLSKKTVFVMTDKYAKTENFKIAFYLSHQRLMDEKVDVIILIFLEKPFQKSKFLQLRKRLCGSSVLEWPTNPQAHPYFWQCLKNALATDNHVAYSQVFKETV
Format: cell-based
Experimental: Human TLR7 Reporter Assay
HEK293 cells in which human TLR7 or rat TLR7 plasmid and reporter plasmid (NF-kB-SEAP) are stably introduced are dispersed in DMEM broth (10% FBS, 1% NEAA, 10 ug/mL blastocidin S HCl, 100 ug/mL Zeocin), and were seeded to 96 well plate per 90 μl/well (hTLR7/seap-293: 20000 cells/well, rTLR7/seap-293:25000 cells/well).
Test compound (DMSO stock solution (2 μl) was diluted with the broth (200 μl) by 100 times) was added to the seeded cells to a 96 well plate (10 μl/well) (final concentration; 1 nM-10 μM, common ratio). After stirring by tapping side of the plate, the cells were cultured in a CO2 incubator for 20 hours. A substrate (50 μl/well) for reporter assay (substrate for SEAP, pNPP) was added to cells stimulated by test sample. Ten minutes after adding the substrate, the reaction quenching solution (4N NaOH) was added by 50 μl/well to cease enzymatic reaction. Sealing a top seal A on the plate, the absorbance was measured by a micro plate reader (405 nm).

First: CCCCOc1nc(N)c2[nH]c(=O)n(CC3CCN(C(=O)CN(C)CCOc4cc(CC(=O)OC)ccc4OC)CC3)c2n1 [Example 19, 2-Butoxy-7,8-dihydro-9-{1-[(N-{2-[2-methoxy-5-(methoxylcarbonylmethyl)phenoxy]ethyl}-N-methyl)aminomethylacarbonyl]piperidin-4-ylmethyl}-8-oxoadenine]
Second: CCCCOc1nc(N)c2[nH]c(=O)n(CCC3CCN(C(=O)CN(C)CCOc4cccc(CC(=O)OC)c4)CC3)c2n1 [Example 18, 2-Butoxy-7,8-dihydro-9-(2-{1-[(N-{2-[3-(methoxylcarbonylmethyl)phenoxy]ethyl)-N-methyl)aminocarbonylmethyl]piperidin-4-yl}ethyl)-8-oxoadenine]
The EC50 of the first is 2.3-fold higher: 0.644 µM for the first, 0.281 µM for the second. The second is the more potent here.

Going from CCCCOc1nc(N)c2[nH]c(=O)n(CCCCCN3CCN(CCOc4cccc(CC(=O)OC)c4)CC3)c2n1 [Example 22] to CCCCOc1nc(N)c2[nH]c(=O)n(CCCCCCCN3CCN(CCOc4cccc(CC(=O)OC)c4)CC3)c2n1 [Example 23, 2-Butoxy-7,8-dihydro-9-(7-{4-[2-(3-methoxycarbonylmethylphenyloxy)ethyl]piperazin-1-yl}heptyl)-8-oxoadenine], the EC50 falls from 0.198 µM to 0.0745 µM (2.7-fold). The second is the more potent here.

CCCCOc1nc(N)c2[nH]c(=O)n(CC3CCN(CCCN(C)Cc4cccc(CC(=O)OC)c4)CC3)c2n1 [Example 1, 2-Butoxy-7,8-dihydro-9-{[2-(3-{N-[(3-methoxycarbonylmethylphenyl-1-yl)methyl]-N-methylamino}propyl)piperidin-4-yl]methyl}-8-oxoadenine] and CCCCOc1nc(N)c2[nH]c(=O)n(CC3CCN(CCCNCc4cccc(CC(=O)OC)c4)CC3)c2n1 [Example 2] are within 1.5-fold of each other in EC50: 1.62 µM for the first, 1.86 µM for the second.

Compared with CCCCOc1nc(N)c2[nH]c(=O)n(CCC3CCN(CCOc4cccc(CC(=O)OC)c4)CC3)c2n1 [Example 11, 2-Butoxy-7,8-dihydro-9-(1-{2-[3-(methoxycarbonylmethyl)phenoxy]ethyl}piperidin-4-ylethyl)-8-oxoadenine], CCCCOc1nc(N)c2[nH]c(=O)n(CCC3CCN(CCCN(C)CCOc4cccc(CC(=O)OC)c4)CC3)c2n1 [Example 12, 2-Butoxy-7,8-dihydro-9-{1-[3-([N-methyl-N {2 [3-(methoxycarbonylmethyl)phenoxy]ethyl}]amino)propyl]piperidin-4-ylethyl}-8-oxoadenine] is 3.1-fold higher in EC50: 0.187 µM for the first, 0.579 µM for the second. The first is the more potent here.

Going from CCCCOc1nc(N)c2[nH]c(=O)n(CCCCN3CCC(Oc4cccc(CC(=O)OC)c4)CC3)c2n1 [Example 29] to CCCCOc1nc(N)c2[nH]c(=O)n(CCCCCN3CCN(CCN(C)Cc4cccc(CC(=O)OC)c4)CC3)c2n1 [Example 20, 2-Butoxy-7,8-dihydro-9-[5-(4-{2-[N-methyl-N-(3-methoxycarbonylmethyl)benzyl]aminomethyl}piperazin-1-yl)pentyl]-8-oxoadenine], the EC50 falls from 0.713 µM to 0.139 µM (5.1-fold). The second is the more potent here.

Compared with COCCOc1nc(N)c2[nH]c(=O)n(CC3CCN(CC(=O)N(C)CCOc4cccc(CC(=O)OC)c4)CC3)c2n1 [Example 17, 7,8-Dihydro-2-(2-methoxyethoxy)-9-{1-[(N-(2-[3-(methoxylcarbonylmethyl)phenoxy]ethyl}-N-methyl)aminocarbonylmethyl]piperidin-4-ylmethyl}-8-oxoadenine], CCCCOc1nc(N)c2[nH]c(=O)n(CCCCCCCN3CCN(CCN(C)Cc4cccc(CC(=O)OC)c4)CC3)c2n1 [Example 21, 2-Butoxy-7,8-dihydro-9-[7-(4-{2-[N-methyl-N-(3-methoxycarbonylmethyl)benzyl]aminomethyl}piperazin-1-yl)heptyl]-8-oxoadenine] is 13-fold lower in EC50: 5.62 µM for the first, 0.449 µM for the second.
